Results: ChEMBL document CHEMBL3272209, “Anthelmintic 1-cinnamamido-2,4-imidazolidinediones” (1976)
The source made the active and inactive calls. No cut-off for these calls is given here.

Legend:
Assay type in all cases: functional
Syphacia obvelata [1] = assay: Anthelmintic activity against Syphacia obvelata infected in mouse assessed as reduction in worm burden at 300 mg/kg, po bid for 5 days; settings: 120 h
Syphacia obvelata [2] = assay: Anthelmintic activity against Syphacia obvelata infected in mouse assessed as reduction in worm burden at 50 mg/kg, po bid for 5 days; settings: for inhibition in vivo at 50 mg/kg: 120 h
Syphacia obvelata [3] = assay: Anthelmintic activity against Syphacia obvelata infected in mouse assessed as reduction in worm burden at 100 mg/kg, po bid for 5 days; settings: 120 h
Syphacia obvelata [4] = assay: Anthelmintic activity against Syphacia obvelata infected in mouse assessed as reduction in worm burden at 10 mg/kg, po bid for 5 days
Syphacia obvelata [5] = assay: Anthelmintic activity against Syphacia obvelata infected in mouse assessed as reduction in worm burden at 25 mg/kg, po bid for 5 days; settings: for inhibition in vivo at 25 mg/kg: 120 h

Compound	inhibition in vivo at 300 mg/kg (Syphacia obvelata [1]) [%]	inhibition (Syphacia obvelata [2])	inhibition in vivo at 100 mg/kg (Syphacia obvelata [3]) [%]	inhibition (Syphacia obvelata [4])	inhibition in vivo at 50 mg/kg (Syphacia obvelata [2]) [%]	inhibition in vivo at 25 mg/kg (Syphacia obvelata [5]) [%]	inhibition (Syphacia obvelata [5])	inhibition in vivo at 10 mg/kg (Syphacia obvelata [4]; 120 h) [%]
Cc1cc(/C=C/C(=O)NN2CC(=O)NC2=O)ccc1Br	100	inactive	81	–	–	–	–	–
O=C(/C=C/c1ccc(Cl)c(Cl)c1)NN1CC(=O)NC1=O	100	–	100	inactive	100	51	–	–
O=C(/C=C/c1ccc2c(c1)OCO2)NN1CC(=O)NC1=O	100	inactive	88	–	–	–	–	–
C1CNCCN1.O=C(O)CCCCC(=O)O	96	inactive	42	–	–	–	–	–
O=C(/C=C/c1ccc(Cl)c(C(F)(F)F)c1)NN1CC(=O)NC1=O	70	inactive	76	–	–	–	–	–
CCc1ccc(/C=C/C(=O)NN2CC(=O)NC2=O)cc1Cl	100	inactive	87	–	–	–	–	–
O=C(/C=C/c1ccccc1)NN1CC(=O)NC1=O	86	inactive	75	–	–	–	–	–
O=C(/C=C/c1ccc(F)cc1)NN1CC(=O)NC1=O	100	–	69	–	67	–	inactive	–
O=C(/C=C/c1cccc(F)c1)NN1CC(=O)NC1=O	100	inactive	77	–	–	–	–	–
N#Cc1ccc(/C=C/C(=O)NN2CC(=O)NC2=O)cc1	100	–	100	inactive	100	97	–	–
O=C(/C=C/c1ccc(F)c(Cl)c1)NN1CC(=O)NC1=O	100	–	100	–	87	–	inactive	–
O=C(/C=C/c1ccc(Cl)cc1)NN1CC(=O)NC1=O	100	–	97	–	52	–	inactive	–
Cc1ccc(/C=C/C(=O)NN2CC(=O)NC2=O)cc1Cl	99	–	97	–	100	87	–	34
